This experiment concerns the target GPR17 (Homo sapiens, UniProt Q13304). Nature of the experiment: cAMP accumulation functional assay (HTRF), Schild analysis against MDL29,951 in CHO hGPR17. More on the design: host or cells: Flp-In T-REx CHO. The experiment is classed as cell-based. The following applies: CHO hGPR17, Schild analysis vs MDL29,951, 5 μM forskolin; read-out: cAMP assay pA2 (converted). On the procedure:
Flp-In T-REx CHO cells stably expressing human GPR17 receptor (CHO hGPR17) from Evi Kostenis' lab (Bonn University, Germany) were cultured at 37° C. in a humidified atmosphere of 5% CO2. Cells were grown in DMEM with Nutrient Mixture F-12 supplemented with hygromycin B (500 μg/ml) and blasticidin (30 μg/ml). Expression from the Flp-In locus was induced by treatment with doxycycline (1 μg/ml) for 16-20 h prior assays.
GPR17 activation can also recruit Gi-type G-protein signaling, resulting in a decrease of intracellular cyclic adenosine monophosphate (cAMP). Intracellular cAMP changes can be measured using the HTRF cAMP dynamic assay kit from CisBio (Codolet, France). Using homogenous time-resolved fluorescence technology (HTRF), the assay is based on competition between native cAMP produced by cells and cAMP labelled with the dye d2. The tracer binding was determined by an anti-cAMP antibody labeled with cryptate.
CHO hGPR17 were detached with PBS containing EDTA and dispatched in black 384-well plates with 5,000 cells per well. Cells were first incubated for 30 minutes at room temperature in HBSS Hepes (pH 7.4) containing vehicle or varying concentrations of test GPR17 antagonist/inverse agonist compounds. Then, a dose response curve of MDL29,951 GPR17 agonist (typically from 10^−5M to 10^−10M) was added on vehicle and on each test GPR17 antagonist/inverse agonist compound concentration in a final volume of 20 μL HBSS Hepes buffer (pH 7.4) containing 1% DMSO, 5 μM forskolin and 0.1 mM IBMX. After 60 minutes incubation at room temperature, the reaction is terminated and the cells lysed by adding the d2 detection reagent and the cryptate reagent in 10 μL lysis buffer each according to manufacturer's instructions. After 60 minutes incubation, changes in cAMP concentrations are measured according to manufacturer's instructions using an Envision plate reader with laser excitation. All incubations were performed in duplicate. Data was analyzed using GraphPad Prism software using the 4-parameter logistic equation to measure MDL29,951 pEC50s in absence and presence of GPR17 antagonist/inverse agonist test compounds. Dose ratio (DR) were plotted against antagonist concentrations and Schild analysis provided estimated affinity pA2 of GPR17 antagonist/inverse agonist test compounds.
The activities of the Example compounds tested are depicted in the table below. The activity ranges A, B and C refer to pA2 values in the cAMP assay as follows: “A”: pA2 6.5≤x<7.5, “B”: pA2 7.5≤x<8.5, “C”: 8.5≤pA2.
In general terms: Cyclic AMP is a second messenger, typically raised through Gs and lowered through Gi signalling.
Chain of GPR17 (Q13304 29-367 limits assumed): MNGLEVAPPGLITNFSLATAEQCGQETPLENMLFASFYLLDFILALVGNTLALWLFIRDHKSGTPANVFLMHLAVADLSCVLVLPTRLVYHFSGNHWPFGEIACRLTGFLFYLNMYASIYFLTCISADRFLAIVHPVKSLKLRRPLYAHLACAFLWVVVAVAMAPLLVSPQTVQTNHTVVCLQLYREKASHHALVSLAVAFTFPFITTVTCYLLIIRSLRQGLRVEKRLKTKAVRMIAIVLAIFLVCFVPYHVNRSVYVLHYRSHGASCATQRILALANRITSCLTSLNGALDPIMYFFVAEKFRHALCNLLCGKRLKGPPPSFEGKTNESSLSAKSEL
`Cn1cc(S(=O)(=O)Nc2cc(F)c(Br)cc2F)c2ccc(Cl)nc21` [Example I-3, N-(4-bromo-2,5-difluorophenyl)-6-chloro-1-methylpyrrolo[2,3-b]pyridine-3-sulfonamide]: the Kb is 3.16 to 31.6 nM.
In the case of `Cn1cc(S(=O)(=O)Nc2cc(F)c(OC(F)F)cc2F)c2ccc(Cl)nc21` [Example I-4, 6-chloro-N-[4-(difluoromethoxy)-2,5-difluorophenyl]-1-methylpyrrolo[2,3-b]pyridine-3-sulfonamide] it was 3.16 to 31.6 nM; in that of `O=S(=O)(Nc1cc(F)c(OC(F)F)cc1F)c1cn(CC(F)F)c2nc(Cl)ccc12` [Example I-5, 6-chloro-1-(2,2-difluoroethyl)-N-[4-(difluoromethoxy)-2,5-difluorophenyl]pyrrolo[2,3-b]pyridine-3-sulfonamide], 31.6 to 316 nM; in that of `O=S(=O)(Nc1cc(F)c(Br)cc1F)c1cn(CC(F)F)c2nc(Cl)ccc12` [Example I-6, N-(4-bromo-2,5-difluorophenyl)-6-chloro-1-(2,2-difluoroethyl)pyrrolo[2,3-b]pyridine-3-sulfonamide], 31.6 to 316 nM.
As for `O=S(=O)(Nc1cc(F)c(Br)cc1F)c1cn(CC(F)CO)c2cc(Cl)ccc12` (stereo not drawn) [Example I-7, N-(4-bromo-2,5-difluorophenyl)-6-chloro-1-(2-fluoro-3-hydroxypropyl)indole-3-sulfonamide], the Kb is 3.16 to 31.6 nM.
For the molecule `O=S(=O)(Nc1cc(F)c(Br)cc1F)c1cn(CC(F)CO)c2nc(Cl)ccc12` (stereo not drawn) [Example I-8, N-(4-bromo-2,5-difluorophenyl)-6-chloro-1-(2-fluoro-3-hydroxypropyl)pyrrolo[2,3-b]pyridine-3-sulfonamide], the Kb was 31.6 to 316 nM.
In the case of `COc1nc(NS(=O)(=O)c2cn(CCO)c3cc(Cl)ccc23)ccc1Br` [Example I-9, N-(5-bromo-6-methoxypyridin-2-yl)-6-chloro-1-(2-hydroxyethyl)indole-3-sulfonamide] it was 31.6 to 316 nM.
Consider `O=S(=O)(Nc1cc(F)c(Br)cc1F)c1cn(CCO)c2cc(Cl)ccc12` [Example I-10, N-(4-bromo-2,5-difluorophenyl)-6-chloro-1-(2-hydroxyethyl)indole-3-sulfonamide], for which the Kb is 3.16 to 31.6 nM.
In the case of `O=C(O)Cn1cc(S(=O)(=O)Nc2cc(F)c(Br)cc2F)c2ccc(Cl)cc21` [Example I-11, 2-[3-[(4-bromo-2,5-difluorophenyl)sulfamoyl]-6-chloroindol-1-yl]acetic acid] it was ≤ 3.16 nM.
The figure for `Cn1cc(S(=O)(=O)Nc2cc(F)c(Br)cc2F)c2ccc(Cl)cc21` [Example I-12, N-(4-bromo-2,5-difluorophenyl)-6-chloro-1-methylindole-3-sulfonamide] is 3.16 to 31.6 nM; for `O=S(=O)(Nc1cc(F)c(Br)cc1F)c1cn(CCCl)c2cc(Cl)ccc12` [Example I-13, N-(4-bromo-2,5-difluorophenyl)-6-chloro-1-(2-chloroethyl)indole-3-sulfonamide] it is 31.6 to 316 nM.
In the case of `O=S(=O)(Nc1cc(F)c(Br)cc1F)c1cn(CCCO)c2cc(Cl)ccc12` [Example I-14, N-(4-bromo-2,5-difluorophenyl)-6-chloro-1-(3-hydroxypropyl)indole-3-sulfonamide] it was 31.6 to 316 nM; in that of `CN(C)CCn1cc(S(=O)(=O)Nc2cc(F)c(Br)cc2F)c2ccc(Cl)cc21` [Example I-15, N-(4-bromo-2,5-difluorophenyl)-6-chloro-1-[2-(dimethylamino)ethyl]indole-3-sulfonamide], 31.6 to 316 nM.
In the case of `O=S(=O)(Nc1cc(F)c(Br)cc1F)c1cn(CCOCCO)c2cc(Cl)ccc12` [Example I-16, N-(4-bromo-2,5-difluorophenyl)-6-chloro-1-[2-(2-hydroxyethoxy)ethyl]indole-3-sulfonamide], the Kb is 3.16 to 31.6 nM.
The figure for `CC(=O)Cn1cc(S(=O)(=O)Nc2cc(F)c(Br)cc2F)c2ccc(Cl)cc21` [Example I-17, N-(4-bromo-2,5-difluorophenyl)-6-chloro-1-(2-oxopropyl)indole-3-sulfonamide] is 31.6 to 316 nM; for `CC(O)Cn1cc(S(=O)(=O)Nc2cc(F)c(Br)cc2F)c2ccc(Cl)cc21` (stereo not drawn) [Example I-18, N-(4-bromo-2,5-difluorophenyl)-6-chloro-1-(2-hydroxypropyl)indole-3-sulfonamide] it is ≤ 3.16 nM.
As for `O=S(=O)(Nc1cc(F)c(Br)cc1F)c1cn(CC(O)CF)c2cc(Cl)ccc12` (stereo not drawn) [Example I-19, N-(4-bromo-2,5-difluorophenyl)-6-chloro-1-(3-fluoro-2-hydroxypropyl)indole-3-sulfonamide], the Kb is 3.16 to 31.6 nM.
`O=S(=O)(Nc1cc(F)c(Br)cc1F)c1cn(CC(O)C(F)(F)F)c2cc(Cl)ccc12` (stereo not drawn) [Example I-20, N-(4-bromo-2,5-difluorophenyl)-6-chloro-1-(3,3,3-trifluoro-2-hydroxypropyl)indole-3-sulfonamide]: the Kb is 3.16 to 31.6 nM.
As to `O=S(=O)(Nc1cc(F)c(OC(F)F)cc1F)c1cn(CCO)c2cc(Cl)ccc12` [Example I-21, 6-chloro-N-[4-(difluoromethoxy)-2,5-difluorophenyl]-1-(2-hydroxyethyl)indole-3-sulfonamide], the Kb is 3.16 to 31.6 nM.
In the case of `Cn1cc(S(=O)(=O)Nc2cc(F)c(OC(F)F)cc2F)c2ccc(Cl)cc21` [Example I-22, 6-chloro-N-[4-(difluoromethoxy)-2,5-difluorophenyl]-1-methylindole-3-sulfonamide] it was 3.16 to 31.6 nM; in that of `CCn1cc(S(=O)(=O)Nc2cc(F)c(OC(F)F)cc2F)c2ccc(Cl)cc21` [Example I-23, 6-chloro-N-[4-(difluoromethoxy)-2,5-difluorophenyl]-1-ethylindole-3-sulfonamide], 31.6 to 316 nM; in that of `O=S(=O)(Nc1cc(F)c(OC(F)F)cc1F)c1cn(CCF)c2cc(Cl)ccc12` [Example I-24, 6-chloro-N-[4-(difluoromethoxy)-2,5-difluorophenyl]-1-(2-fluoroethyl)indole-3-sulfonamide], 3.16 to 31.6 nM.
In the case of `CCCn1cc(S(=O)(=O)Nc2cc(F)c(OC(F)F)cc2F)c2ccc(Cl)cc21` [Example I-25, 6-chloro-N-[4-(difluoromethoxy)-2,5-difluorophenyl]-1-propylindole-3-sulfonamide] it was 31.6 to 316 nM.
For `COCCn1cc(S(=O)(=O)Nc2cc(F)c(OC(F)F)cc2F)c2ccc(Cl)cc21` [Example I-26, 6-chloro-N-[4-(difluoromethoxy)-2,5-difluorophenyl]-1-(2-methoxyethyl)indole-3-sulfonamide], the Kb was 31.6 to 316 nM.
The figure for `O=S(=O)(Nc1cc(F)c(OC(F)F)cc1F)c1cn(CC(O)CO)c2cc(Cl)ccc12` (stereo not drawn) [Example I-27, 6-chloro-N-[4-(difluoromethoxy)-2,5-difluorophenyl]-1-(2,3-dihydroxypropyl)indole-3-sulfonamide] is ≤ 3.16 nM; for `O=S(=O)(Nc1cc(F)c(Br)cc1F)c1cn(CC(O)CO)c2cc(Cl)ccc12` (stereo not drawn) [Example I-28, N-(4-bromo-2,5-difluorophenyl)-6-chloro-1-(2,3-dihydroxypropyl)indole-3-sulfonamide] it is 3.16 to 31.6 nM; for `O=S(=O)(Nc1cc(F)c(Br)cc1F)c1cn(CC(O)CO)c2nc(Cl)ccc12` (stereo not drawn) [Example I-29, N-(4-bromo-2,5-difluorophenyl)-6-chloro-1-(2,3-dihydroxypropyl)pyrrolo[2,3-b]pyridine-3-sulfonamide] it is 3.16 to 31.6 nM.
